Assay results published in patent US4055648A, “Papaverine thienyl-carboxylates and medicaments containing them” (Choay S.A., priority 1974, dated 1977).
Entries after “also recorded” stand apart in the source; their conditions may differ. Where a name gives a salt, the structure may show the parent alone.

Assays:
platelet adhesivity = assay: in vivo platelet adhesivity in thrombin-sensitized rabbit; conditions: thrombin 20 U i.v.
Protocol: (§1) The technique used is that described in the study "Disseminated and localized intravascular coagulations" of C. Raby, Masson et Cie, 1970, p. 91-93.
(§2) The parameter used in this technique is the level of platelet adhesivity. The blood to be tested is run through a column of glass beads. Platelet counts are carried out on the blood before and after passage respectively through the glass beads. The difference between these two counts enables the level of platelet adhesivity to be estimated. Comparison of the adhesivity ratios, measured in the treated animals and in the controlled animals, enables the effect of the product under test to be estimated.
In the in vivo test the animal to be tested (the rabbit) is injected with thrombin (20 U) by the intravenous route, for the purpose of sensitizing the platelets, and the product under study is then injected. The behavior of the platelets is studied by samples taken before and after administration of the product under study.
(§3) Papaverine thienyl-2-carboxylate has, in all these tests, been applied in the dissolved state in a 1 % aquous solution of methanol in isotonic chloride solution, in the proportion of 13 mg of papaverine thienyl-2-carboxylate per 100 ml of this solution.
30 Animals were treated in the in vivo tests:
10 animals with the thrombin alone (control animals), […]

[1] = tested on: unilateral cerebral oedema; assay: unilateral cerebral oedema: cortical electrogenesis ("R" index) and residual cortical reactivity, intraduodenal route; type: in vivo, rabbit
Protocol: The effect of a medicament on the oxygen and glucose metabolisms is estimated, in this test, by the reduction in the deleterious effects of oedema on certain parameters with respect to the controls.
The technique used is that described in the work "Aggressology" 1972, 13, Vol. IV, p. 257-259 (M.G. Borzex, M. Labos, J. Cahn). The principle of the test consists of producing unilateral ablation of a bone flap of 7 to 10 mm diameter in the occipital region. The incision, 48 hours later, of the dura mater or dural (membrane which surrounds the brain) results in the formation of an oedema.
Two essential parameters are selected to judge the seriousness of the oedematous effect and to subsequently permit estimation of the effects of the compound under study: electrogenesis on the "injured" hemisphere and the development of residual cortical reactivity in this same hemisphere.
The electrogenesis is judged by variations in the index (R), defined as the ratio of the number of rapid rhythms (theta arousal rhythm) to the number of slow waves of the electrocorticogram (determined by electroencephalography). On the injured side, the size of the slow waves tends to increase and that of the thetarhythm connected with the arousal response to be eliminated.
The residual cortical reactivity of the hemisphere carrying the cerebral oedema expresses the percentage of reactivity which persists with regard to a sensorial stimulation (auditive stimulation or nociceptive stimulation of the cutanous nerve ends by pinching of the dorsal skin) despite the oedematous degradation.
An active medicament tends to increase the value of the "R" index and to reestablish the residual cortical reactivity of the animals which have undergone the operation. The activities of the medicament expressed in % growth for the index R, and in % growth for the residual cortical reactivity, are compared with results observed in the controls.
The study was carried out on 42 male rabbits, active, of average weight 2.5 kg (and in eight control animals). The product to be tested (papaverine thienyl-2-carboxylate) was administered by the intraduodenal route, […] after ablation of the bone flap and just before the incision of the dural. This route of administration was selected since it is equivalent to the administration by the oral route.
The rabbits studied were divided in the following manner:
a series of eight "control" animals receiving 2 ml/kg of isotonic chloride solution;
three series of eight rabbits, each having received respectively 5, 10 and 20 mg/kg of papaverine hydrochloride;
two series of eight animals, each receiving respectively 6.2 and 12.4 mg/kg of papaverine thienyl-2-carboxylate (dissolved in alcoholized water, containing 1 ml of alcohol per 30 ml of water);
lastly, two rabbits receiving 2 mg/kg of papaverine hydrochloride dissolved in alcoholized water.
The doses of 5 and 10 mg/kg of papaverine hydrochloride correspond respectively to doses of 6.2 and 12.4 mg/kg of papaverine thienyl-2-carboxylate, if reduced to the corresponding doses of papaverine-base (respectively 4.51 and 9.02 mg/kg).
The development of the two above indicated parameters (expressed below in average values) is observed for 30 hours following the incision of the dural.

[2] = tested on: platelet adhesivity (blood); assay: in vitro platelet adhesivity (glass bead column, Raby technique); type: cell-based; conditions: at equal doses expressed in terms of papaverine base
Protocol: as §1, §2
In in vitro test the levels of platelet adhesivity measured on control specimens of blood and on blood specimens to which have previously been added doses of the product under test, are compared.
as §3

LD50 by the oral route = conditions: in vivo, mouse
Description: Study of the LD50 (by the oral route) in the mouse has established the complete inoccuousness of papaverine thienyl-carboxylates.

solubility = type: physicochemical
[3] = tested on: platelet adhesivity; disturbances of electrogenesis at the level of the brain; assay: overall comparison of papaverinic activity (platelet adhesivity, brain disturbances, cortical reactivity); conditions: associated with / expressed as papaverine base
[4] = administration in repeated doses; cited from earlier work

With `COc1ccc(Cc2nccc3cc(OC)c(OC)cc23)cc1OC` [papaverine citrate, reference compound] the “effect on platelet adhesivity” value (platelet adhesivity; 32 γ/ml (20 γ/ml papaverine base)) was “inactive”.

With `COc1ccc(Cc2nccc3cc(OC)c(OC)cc23)cc1OC` [papaverine hydrochloride, reference compound] the “activity in cerebral oedema” value ([1]; 5 mg/kg intraduodenal (4.51 mg/kg papaverine base), hydrochloride) was “practically inactive; also recorded: practically ineffective”, the “treated animals with biological effect” value ([1]; 10 mg/kg intraduodenal) was “about 50%” and the “rabbits with improved residual cortical reactivity” value ([1]; 10 mg/kg intraduodenal, 2 hours following administration) was “four rabbits out of eight”. For the same molecule, the “improvement of residual cortical reactivity (average)” value ([1]; 10 mg/kg intraduodenal, 2 hours following administration, average in eight rabbits) was 29%, the “rise in the "R" index” value ([1]; 10 mg/kg intraduodenal, between 4 and 6 hours) was 14% and the “rise in the "R" index” value ([1]; 10 mg/kg intraduodenal, first 4 hours) was 19%. The “animals affected ("R" ratio)” value ([1]; 20 mg/kg intraduodenal) was “six animals in eight”, the “improvement of residual cortical reactivity” value ([1]; 20 mg/kg intraduodenal, between 4 and 6 hours) was “about 23%” and the “improvement of residual cortical reactivity” value ([1]; 20 mg/kg intraduodenal, during 4 hours, same proportion as "R" ratio) was “improved in the same proportion”.

In the case of `COc1ccc(Cc2nccc3cc(OC)c(OC)cc23)cc1OC` [papaverine thienyl-2-carboxylate], the “activity relative to known salts of papaverine” value [2] is reported as “considerably greater than that of the known salts of papaverine used”, the “effect on platelet adhesivity” value (platelet adhesivity; 2.88 γ/ml (2.10 γ/ml papaverine base)) is reported as “act favourably on the adhesivity rate of the platelets” and the “activity in cerebral oedema” value ([1]; 6.2 mg/kg intraduodenal) is reported as “active”. The “effect compared with papaverine hydrochloride 20 mg/kg” value ([1]; 6.2 mg/kg intraduodenal) was “rather similar to that exerted by a dose of 20 mg/kg of papaverine hydrochloride”, the “rabbits with very distinct improvement of the two parameters” value ([1]; 6.2 mg/kg intraduodenal (4.51 mg/kg papaverine base)) was “five rabbits out of eight” and the “extension in the duration of the arousal reactions on the injured hemisphere” value ([1]; 6.2 mg/kg intraduodenal, between second and fourth hours, average in eight rabbits) was 45.4%. The “duration of improvement of the two parameters” value ([1]; 6.2 mg/kg intraduodenal, five rabbits out of eight) was “at least 4 hours”, the “effect compared with papaverine hydrochloride 20 mg/kg” value ([1]; 12.4 mg/kg intraduodenal) was “slightly more intense effect and more prolonged than a dose twice as great of papaverine hydrochloride” and the “persistence of improvement of residual cortical reactivity” value ([1]; 12.4 mg/kg intraduodenal) was “remaining substantially stable during the first 6 hours”. For the same molecule, the “rabbits with particularly distinct effect” value ([1]; 12.4 mg/kg intraduodenal) was “seven rabbits out of eight”, the “average rise in the "R" index” value ([1]; 12.4 mg/kg intraduodenal (9.02 mg/kg papaverine base)) was 38.5% and the “average improvement of residual cortical reactivity” value ([1]; 12.4 mg/kg intraduodenal, maximum effect between 2 and 4 hours, eight rabbits) was 54.2%. The “activity on residual cortical reactivity compared with papaverine hydrochloride” value ([1]; intraduodenal) was “much more marked activity”, the “activity compared with papaverine hydrochloride” value ([1]; intraduodenal, collected results) was “distinctly more active than papaverine hydrochloride” and the LD50 at 48 h (LD50 by the oral route) was 1300 mg/kg. For the same molecule, the solubility in methanol (solubility) was “Soluble”, the “solubility in warm ethanol” value (solubility; warm ethanol) was “Soluble” and the “papaverinic activity compared with known papaverine salts” value [3] was “to a much higher degree; also recorded: distinctly higher than the salts of papaverine used until now”.

For `COc1ccc(Cc2nccc3cc(OC)c(OC)cc23)cc1OC` [papaverine thienyl-3-carboxylate, Papaverine thienyl-3-carboxylate], the “solubility in hot ethanol” value (solubility; hot ethanol) was “Soluble”, the solubility in methanol (solubility) was “Soluble” and the solubility (solubility; water, read-out: solutions in water, content of product) was ≤ 10000 µg/mL.

In the case of `COc1ccc(Cc2nccc3cc(OC)c(OC)cc23)cc1OC` [papaverine], the secondary effects [4] is given as “somnolence, constipation, increased excitability of the reflexes and digestive disorders”.
